Assay results as given in the NIST ThermoML archive (doi:10.1021/je8001267).

Details: Liquid, Closed cell (Static) method

N [ammonia]
Details | vapor or sublimation pressure [kPa]
303.12 K | 1166
313.14 K | 1553
323.16 K | 2030
333.13 K | 2609
343.13 K | 3305
353.13 K | 4132
363.12 K | 5105
373.16 K | 6243
